The values that follow come from article PMC12592420, “A mismatch in enzyme-redox partnerships underlies divergent cytochrome P450 activities between human hepatocytes and microsomes” (Communications Biology, 2025).

“And” between values parts separate entries of the source, which are not always exact repeats. Equal values may be shown once.

The subject of one series is human hepatocytes (HH). As to the kind of experiment: in vitro. As to the method:
(§1) Cryopreserved HH prepared from a mixed-gender pool of twenty donors (product X008000, lot EEO, BIOIVT), ten-donors (product S01205, lot MTJ, BIOIVT), ten donors (product S01205 lot LYB, BIOIVT) were utilised in the experiments. Cryopreserved HH were rapidly thawed in a water bath set at 37 °C and added to Leibovitz media that had been pre-warmed in the water bath. The suspension of cells was mixed gently and centrifuged at 40 × g for 4 min at room temperature. Excess media was removed, and the cells were re-suspended in 5 mL of fresh Leibovitz media. The cells were counted using an automated cell counter (Cellometer).

The nature of another series: in vitro. Particulars: human, hepatocytes. The procedure:
as §1

A short description of series [1]: CLint in NADPH-supplemented human liver microsomes. Particulars: for HLM/HH (ratio of scaled CLint,u): NADPH-HLM average over HH average; for CLint scaled at 1 µM / microsomal CLint at 1 µM: human; for microsomal CLint at 1 µM: pH 7.4. The procedure:
(§2) Calculation and scaling of CLint,u was done using the equation below and 45 mg of microsomal protein per gram of liver. HLMCLint,u=ln2/x1/t1/2(min)xmLincubation/mgmicrosomalproteinx45mgmicrosomalprotein/gliverx21gliver/kg/Fuinc

A short description of series [2]: Free fraction in HLM incubation, equilibrium dialysis. The series is classed as in vitro ADME, human. The note with it: fraction unbound, measured or estimated by in silico models of Fuinc.
The subject of a further series is rat hepatocytes. As to the kind of experiment: Free fraction in rat hepatocytes as surrogate for HH, equilibrium dialysis. The series is classed as in vitro ADME. Particulars: fraction unbound, measured or estimated by in silico models of Fuinc.
Series [3] can be described thus: CLint in NADH-supplemented human liver microsomes. The note with it: for microsomal CLint at 1 µM / CLint scaled at 1 µM: human, pH 7.4; for microsomal CLint at 1 µM: human liver microsomes + NADH. As to the method: as §2
Series [4] in a line: LogD pH 7.4, octanol/phosphate buffer. The note with it: for logD: octanol/phosphate buffer, pH 7.4.
Series [5] can be described thus: Intrinsic permeability in Caco-2 cells with efflux inhibited. Particulars: human, Caco-2.
For the next series, the system named is Caco-2 cells. The series is described as above. Particulars: intrinsic (passive) permeability, at least one determination.
[6] abbreviates: HH, individual determinations 1-3, Fig. 1.
The mark [7] stands for this setting: Scaled HH CLint,u average, HH, average, Fig. 1.
Setting [8] is: Scaled HH CLint,u, HH, individual determinations 1-3, Fig. 1.
Setting [9] is: NADPH-HLM, individual determinations 1-3, Fig. 1.
Setting [10] is: human liver microsomes + NADPH, pH 7.4, Scaled HLM CLint,u, NADPH-HLM, individual determinations 1-3, Fig. 1.
The mark [11] stands for this setting: human liver microsomes, pH 7.4, Scaled HLM CLint,u average, NADPH-HLM, average, Fig. 1.
Where [12] appears, read: human liver microsomes, pH 7.4, NADPH_HLM_scaled_CLint,u, Fig. 4a,d.
Setting [13] is: 1 µM, single determination, Fig. 4a,d.

In the case of `C[C@]12C=CC(=O)C=C1CC[C@@H]1[C@@H]2C(=O)C[C@@]2(C)[C@H]1CC[C@]2(O)C(=O)CO` [Prednisone], in the series on human hepatocytes (HH) (setting [6]), the “Scaled HH CLint,u” value is 43.6458 mL/min/kg and 52.3108 mL/min/kg. For the same molecule, the intrinsic metabolic clearance (CLint scaled) in “in vitro” (setting [7]) came to 56.3 mL/min/kg; in the series “in vitro” (setting [8]) it was 72.8 mL/min/kg. Besides, the “HLM/HH (ratio of scaled CLint,u)” value in [1] (Fig. 1) is 0.4866. Besides, the “Scaled HLM CLint,u” value in series [1] (setting [9]) was 26.9421 mL/min/kg and 25.4228 mL/min/kg. Besides, the results for the CLint scaled at 1 µM in [1] (setting [10]) and in series [1] (setting [11]) were 29.8 mL/min/kg and 27.4 mL/min/kg, respectively.

In the case of `CCN(C(=O)c1cc(F)ccc1Oc1cncnc1N1CC2(CCN(C[C@H]3CC[C@H](NS(=O)(=O)CC)CC3)CC2)C1)C(C)C` [Revumenib], the fu_HLM in [2] is given as 0.819. Also, the fu_ratHH in the series with rat hepatocytes is listed as 0.721. This molecule also displayed a hepatocyte CLint at 1 µM in “in vitro” (both) of 2.92 µL/min/1e6 cells. For the same molecule, the values for the intrinsic metabolic clearance (CLint scaled) at 1 µM (in the series “in vitro” (HH_scaled_CLint,u); in [3] (human liver microsomes); in series [1] (setting [12])) were 10.2 mL/min/kg, 40.2 mL/min/kg and 186 mL/min/kg, respectively. The values for the intrinsic metabolic clearance (microsomal CLint) at 1 µM in series [3] and in [1] (human liver microsomes + NADPH) were 34.9 µL/min/mg and 161 µL/min/mg, respectively. This molecule also yielded a log distribution coefficient (logD) in series [4] of 1.41. This molecule showed a Papp at 2 h, 10 µM in [5] of 1.65 ×10⁻⁶ cm/s.

Turning to `CCCc1nn(C)c2c(=O)[nH]c(-c3cc(S(=O)(=O)N4CCN(C)CC4)ccc3OCC)nc12` [Sildenafil], the fu_HLM in series [2] is recorded as 0.638. Moreover, the fu_ratHH in the series with rat hepatocytes is 0.633. In addition, the intrinsic metabolic clearance (hepatocyte CLint) in “in vitro” (both) came to 14.5 µL/min/1e6 cells. The CLint scaled in “in vitro” (HH_scaled_CLint,u, Fig. 4a) came to 57.7 mL/min/kg. Further, the microsomal CLint at 1 µM in series [3] worked out at 29.1 µL/min/mg; in [1] (human liver microsomes + NADPH), 134 µL/min/mg. The values for the CLint scaled at 1 µM in series [3] (human liver microsomes) and in series [1] (setting [12]) were 43.1 mL/min/kg and 199 mL/min/kg, respectively. This molecule displayed a log distribution coefficient (logD) in series [4] of 2.74. For the same molecule, in [5], the apparent permeability (Papp) at 2 h, 10 µM was determined as 66 ×10⁻⁶ cm/s.

Take `C[C@]12CC[C@H]3[C@@H](CCC4=CC(=O)CC[C@@]43C)[C@@H]1CC[C@@H]2O` [Testosterone]: in the series on human hepatocytes (HH) (setting [6]), the “Scaled HH CLint,u” value was 1005.17 mL/min/kg and 1161.02 mL/min/kg. Besides, the CLint scaled was 1320 mL/min/kg in “in vitro” (setting [7]) and 1780 mL/min/kg in the series “in vitro” (setting [8]). Moreover, in series [1] (setting [9]), the “Scaled HLM CLint,u” value was 250.062 mL/min/kg and 237.027 mL/min/kg. Also, the intrinsic clearance (CLint scaled) at 1 µM in [1] (microsomes, pH 7.4, Scaled HLM CLint,u average, NADPH-HLM, average, Fig. 1) is 246 mL/min/kg; in series [1] (microsomes, pH 7.4, Scaled HLM CLint,u, NADPH-HLM, individual determinations 1-3, Fig. 1), 251 mL/min/kg.

Take `CCC1=C[C@@H]2CN(C1)Cc1c([nH]c3ccccc13)[C@@](C(=O)OC)(c1cc3c(cc1OC)N(C)[C@H]1[C@@](O)(C(=O)OC)[C@H](OC(C)=O)[C@]4(CC)C=CCN5CC[C@]31[C@@H]54)C2` [Vinorelbin]: the “Scaled HH CLint,u” value in the series with human hepatocytes (HH) (human, hepatocytes, 1 µM) stood at 48.4191 mL/min/kg. The intrinsic clearance (CLint scaled) at 1 µM in the series “in vitro” (Scaled HH CLint,u) was 38.9 mL/min/kg; in “in vitro” (Scaled HH CLint,u average), 43.6 mL/min/kg; in [1] (setting [10]) it was 436 mL/min/kg; in series [1] (setting [11]) it was 598 mL/min/kg. Also, the “HLM/HH (ratio of scaled CLint,u)” value in series [1] (Fig. 1) turned out to be 13.7107. Further, in series [1] (setting [9]), the “Scaled HLM CLint,u” value is 640.935 mL/min/kg and 717.808 mL/min/kg.

With `CC[C@@H]1[C@H](F)C(=O)N[C@@H]1COc1nccc2cc(C(N)=O)c(OC)cc12` [Zimlovisertib], the fu_HLM in series [2] is recorded as 0.817. In the series with rat hepatocytes, the fu_ratHH is reported as 0.817. The hepatocyte CLint in “in vitro” (both, HH_CLint, 1 µM, single determination, Fig. 4a) is 5.84 µL/min/1e6 cells. The molecule also had a CLint scaled in “in vitro” (HH_scaled_CLint,u, Fig. 4a) of 18 mL/min/kg. Moreover, the intrinsic clearance (CLint scaled) at 1 µM was found to be 8.09 mL/min/kg in [3] (microsomes) and 46.5 mL/min/kg in series [1] (microsomes, pH 7.4, NADPH_HLM_scaled_CLint,u). The molecule further came in with a log distribution coefficient (logD) in series [4] of 1.98. For the same molecule, in series [5], the Papp at 2 h, 10 µM stood at 31.7 ×10⁻⁶ cm/s.

With `C[C@]12CCC(=O)C=C1CC[C@@H]1[C@@H]2[C@@H](O)C[C@@]2(C)[C@H]1CC[C@]2(O)C(=O)CO` [hydrocortisone], the “Scaled HH CLint,u” value in the series with human hepatocytes (HH) (setting [6]) was 16.444 mL/min/kg and 19.1349 mL/min/kg. In addition, the results for the CLint scaled in the series “in vitro” (setting [7]) and in the series “in vitro” (setting [8]) were 19.3 mL/min/kg and 22.4 mL/min/kg, respectively. The “HLM/HH (ratio of scaled CLint,u)” value in series [1] (Fig. 1) is 2.834. Further, in series [1] (setting [9]), the “Scaled HLM CLint,u” value was 57.5167 mL/min/kg and 51.9108 mL/min/kg. Further, the CLint scaled at 1 µM in series [1] (setting [10]) is 54.9 mL/min/kg; in series [1] (setting [11]) it was 54.8 mL/min/kg.

Take AZ23: the fu_HLM in [2] was 0.583. Also, the fu_ratHH with rat hepatocytes is 0.577. The HH_CLint with human hepatocytes (HH) (1 µM, single determination, Fig. 4a) is given as 3.309 uL/min/106 cells. The “HH_scaled_CLint,u” value with human hepatocytes (HH) (Fig. 4a) was determined as 14.4518 mL/min/kg. Moreover, the “HLM_NADH CLint” value in [3] (setting [13]) turned out to be 6.34 µL/min/mg. Besides, the “NADH_HLM_scaled_CLint,u” value in series [3] (Fig. 4a,d) was found to be 10.2767 mL/min/kg. In addition, the “LogD pH 7.4” value in series [4] (at least one determination) worked out at 3.08. Besides, the “Caco-2 Papp” value in the series with Caco-2 cells was 66.417 10-6 cm/s. Besides, the “HLM_NADPH CLint” value in [1] (setting [13]) was 56.607 µL/min/mg. Further, the “NADPH_HLM_scaled_CLint,u” value in [1] (Fig. 4a,d) worked out at 91.7558 mL/min/kg.
